# Measured values from US12098144B2, “Piperazine indazole glucocorticoid receptor antagonists” (Corcept Therapeutics Incorporated, priority 2021, dated 2024).
# pKi: −log10 of the molar value.
# Target: T1, glucocorticoid receptor (Homo sapiens, UniProt P04150)
# T1 construct: endogenous in cells; ATCC cat
# T1 sequence (P04150 1-777): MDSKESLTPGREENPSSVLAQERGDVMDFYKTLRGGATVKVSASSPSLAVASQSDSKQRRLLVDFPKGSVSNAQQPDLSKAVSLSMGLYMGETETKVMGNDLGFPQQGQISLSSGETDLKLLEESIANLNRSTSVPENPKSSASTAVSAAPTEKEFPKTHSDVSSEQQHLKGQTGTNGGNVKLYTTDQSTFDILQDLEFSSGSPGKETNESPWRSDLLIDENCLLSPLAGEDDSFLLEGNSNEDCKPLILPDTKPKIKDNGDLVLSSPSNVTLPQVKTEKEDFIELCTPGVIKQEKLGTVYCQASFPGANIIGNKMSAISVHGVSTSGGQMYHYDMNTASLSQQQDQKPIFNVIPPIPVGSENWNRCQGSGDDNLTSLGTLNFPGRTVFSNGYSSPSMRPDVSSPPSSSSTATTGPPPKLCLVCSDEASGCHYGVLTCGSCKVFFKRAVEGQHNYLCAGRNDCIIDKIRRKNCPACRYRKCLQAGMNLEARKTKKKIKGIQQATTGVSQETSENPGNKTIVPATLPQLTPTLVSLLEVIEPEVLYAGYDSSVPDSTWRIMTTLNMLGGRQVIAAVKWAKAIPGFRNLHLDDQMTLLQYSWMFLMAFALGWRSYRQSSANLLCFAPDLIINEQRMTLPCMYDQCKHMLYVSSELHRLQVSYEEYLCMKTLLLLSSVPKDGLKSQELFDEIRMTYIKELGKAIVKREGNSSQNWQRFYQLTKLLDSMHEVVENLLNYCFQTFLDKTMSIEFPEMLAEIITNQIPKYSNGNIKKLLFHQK
# Experiment: Hep G2 TAT Ki: inhibition of dexamethasone-induced TAT in HepG2 cells (96 well)
# Format: cell-based
# Details: challenge of 100 nM dexamethasone, IC50 converted to Ki by Cheng and Prusoff equation
# Protocol: Glucocorticoid mediated activation of TAT occurs by transactivation of glucocorticoid response elements in the TAT promoter by glucocorticoid receptor-agonist complex.
# HepG2 cells were cultured using MEME media supplemented with 10% (v/v) foetal bovine serum; 2 mM L-glutamine and 1% (v/v) NEAA at 37° C., 5%/95% (v/v) CO2/air.
# Compounds were serially half log diluted in 100% (v/v) dimethylsulphoxide from a 10 mM stock.
# HepG2 cells were then lysed with 30 μl of cell lysis buffer containing a protease inhibitor cocktail for 15 minutes at 4° C. […] After 2 hours incubation at 37° C. the reaction was terminated by the addition of 15 μl of 10M aqueous potassium hydroxide solution, and the plates incubated for a further 30 minutes at 37° C.
# [compound] and fitting the data to a 4 parameter logistic equation.
row,pKi,Compound
1,6.51,"Cc1cc2c(cnn2-c2ccc(F)cc2)cc1C1CN(S(=O)(=O)CC2CC2)CCN1CC(C)C (single isomer, unassigned) [Example 46, 5-(4-((cyclopropylmethyl)sulfonyl)-1-isobutylpiperazin-2-yl)-1-(4-fluorophenyl)-6-methyl-1H-indazole]"
2,7.89,"Cc1cc2c(cnn2-c2ccc(F)cc2)cc1C1CN(S(=O)(=O)c2cnn(C)n2)CCN1CC1CCC1 (single isomer, unassigned) [Example 77, 5-(1-(cyclobutylmethyl)-4-((2-methyl-2H-1,2,3-triazol-4-yl)sulfonyl)piperazin-2-yl)-1-(4-fluorophenyl)-6-methyl-1H-indazole]"
3,7.13,"Cc1cc2c(cnn2-c2ccc(F)cc2)cc1C1CN(S(=O)(=O)c2nncn2C)CCN1CC(C)C (single isomer, unassigned) [Example 94, 1-(4-fluorophenyl)-5-(1-isobutyl-4-((4-methyl-4H-1,2,4-triazol-3-yl)sulfonyl)piperazin-2-yl)-6-methyl-1H-indazole]"
4,7.89,"Cc1cc2c(cnn2-c2ccc(F)cc2)cc1C1CN(S(=O)(=O)c2cnn(C)c2C)CCN1CCC(F)(F)F (single isomer, unassigned) [Example 129, 5-(4-((1,5-dimethyl-1H-pyrazol-4-yl)sulfonyl)-1-(3,3,3-trifluoropropyl)piperazin-2-yl)-1-(4-fluorophenyl)-6-methyl-1H-indazole]"
5,7.37,"Cc1cc2c(cnn2-c2ccc(F)cc2)cc1C1CN(S(=O)(=O)c2cnn(C)n2)CCN1CC(C)(C)CO (single isomer, unassigned) [Example 82, 3-(2-(1-(4-fluorophenyl)-6-methyl-1H-indazol-5-yl)-4-((2-methyl-2H-1,2,3-triazol-4-yl)sulfonyl)piperazin-1-yl)-2,2-dimethylpropan-1-ol]"
6,7.47,"Cc1cc2c(cnn2-c2ccc(F)cc2)cc1C1CN(S(=O)(=O)c2cnn(C)n2)C(C)CN1CC(C)C (stereo not drawn) [Example 89, 1-(4-fluorophenyl)-5-(1-isobutyl-5-methyl-4-((2-methyl-2H-1,2,3-triazol-4-yl)sulfonyl)piperazin-2-yl)-6-methyl-1H-indazole]"
7,7.19,"Cc1cc2c(cnn2-c2ccc(F)cc2)cc1C1CN(S(=O)(=O)c2conc2C)CCN1CC(C)C (single isomer, unassigned) [Example 56, 4-((3-(1-(4-fluorophenyl)-6-methyl-1H-indazol-5-yl)-4-isobutylpiperazin-1-yl)sulfonyl)-3-methylisoxazole]"
8,7.89,"Cc1cc2c(cnn2-c2ccc(F)cc2)cc1C1CN(S(=O)(=O)c2cnn(C)c2C)CCN1CC(C)C(F)(F)F (single isomer, unassigned) [Example 142, 5-(4-((1,5-dimethyl-1H-pyrazol-4-yl)sulfonyl)-1-(3,3,3-trifluoro-2-methylpropyl)piperazin-2-yl)-1-(4-fluorophenyl)-6-methyl-1H-indazole]"
9,7.62,"Cc1cc2c(cnn2-c2ccc(F)cc2)cc1C1CN(S(=O)(=O)c2ccccn2)CCN1CC(C)C (single isomer, unassigned) [Example 115, 1-(4-fluorophenyl)-5-(1-isobutyl-4-(pyridin-2-ylsulfonyl)piperazin-2-yl)-6-methyl-1H-indazole]"
10,6.59,"CCN1CCN(S(=O)(=O)c2cnn(C)n2)CC1c1cc2cnn(-c3ccc(F)cc3)c2cc1C (stereo not drawn) [Example 15, 5-(1-ethyl-4-((2-methyl-2H-1,2,3-triazol-4-yl)sulfonyl)piperazin-2-yl)-1-(4-fluorophenyl)-6-methyl-1H-indazole]"
11,7.64,"CCn1ncc(S(=O)(=O)N2CCN(CCC(F)(F)F)C(c3cc4cnn(-c5ccc(F)cc5)c4cc3C)C2)n1 (single isomer, unassigned) [Example 135, 5-(4-((2-ethyl-2H-1,2,3-triazol-4-yl)sulfonyl)-1-(3,3,3-trifluoropropyl)piperazin-2-yl)-1-(4-fluorophenyl)-6-methyl-1H-indazole]"
12,7.14,"Cc1cc2c(cnn2-c2ccc(F)cc2)cc1C1CN(S(=O)(=O)c2cnn(C)n2)CCN1Cc1ccon1 (single isomer, unassigned) [Example 81, 3-((2-(1-(4-fluorophenyl)-6-methyl-1H-indazol-5-yl)-4-((2-methyl-2H-1,2,3-triazol-4-yl)sulfonyl)piperazin-1-yl)methyl)isoxazole]"
13,7.00,"Cc1cc2c(cnn2-c2cnn(C)c2)cc1C1CN(S(=O)(=O)c2cnn(C)n2)CCN1CCC(F)(F)F (stereo not drawn) [Example 168, 6-methyl-1-(1-methyl-1H-pyrazol-4-yl)-5-(4-((2-methyl-2H-1,2,3-triazol-4-yl)sulfonyl)-1-(3,3,3-trifluoropropyl)piperazin-2-yl)-1H-indazole]"
14,6.92,"Cc1cc2c(cnn2-c2ccc(F)cc2)cc1C1C(=O)N(S(=O)(=O)c2cnn(C)n2)CCN1CC(C)C (stereo not drawn) [Example 152, 3-(1-(4-fluorophenyl)-6-methyl-1H-indazol-5-yl)-4-isobutyl-1-((2-methyl-2H-1,2,3-triazol-4-yl)sulfonyl)piperazin-2-one]"
15,7.26,"Cc1cc2c(cnn2-c2ccc(F)cc2)cc1C1CN(S(=O)(=O)Cc2ccc(C#N)cc2)CCN1CC(C)C (single isomer, unassigned) [Example 114, 4-(((3-(1-(4-fluorophenyl)-6-methyl-1H-indazol-5-yl)-4-isobutylpiperazin-1-yl)sulfonyl)methyl)benzonitrile]"
16,7.66,"Cc1cc2c(cnn2-c2ccc(F)cc2)cc1C1CN(S(=O)(=O)c2cnn(C(F)F)c2)CCN1CC(C)C (single isomer, unassigned) [Example 59, 5-(4-((1-(difluoromethyl)-1H-pyrazol-4-yl)sulfonyl)-1-isobutylpiperazin-2-yl)-1-(4-fluorophenyl)-6-methyl-1H-indazole]"
17,6.11,"Cc1cc2c(cnn2-c2ccc(F)cc2)cc1C1CN(S(=O)(=O)c2cnn(C)n2)CCN1C(=O)C(C)C (stereo not drawn) [Example 35, 1-(2-(1-(4-fluorophenyl)-6-methyl-1H-indazol-5-yl)-4-((2-methyl-2H-1,2,3-triazol-4-yl)sulfonyl)piperazin-1-yl)-2-methylpropan-1-one]"
18,6.74,"Cc1cc2c(cnn2-c2ccc(F)cc2)cc1C1CN(S(=O)(=O)c2cnn(C)n2)CCN1c1ccccc1 (stereo not drawn) [Example 86, 1-(4-fluorophenyl)-6-methyl-5-(4-((2-methyl-2H-1,2,3-triazol-4-yl)sulfonyl)-1-phenylpiperazin-2-yl)-1H-indazole]"
19,7.19,"Cc1cc2c(cnn2-c2ccc(F)cc2)cc1C1CN(S(=O)(=O)N(C)C)CCN1CC(C)C (single isomer, unassigned) [Example 50, 3-(1-(4-fluorophenyl)-6-methyl-1H-indazol-5-yl)-4-isobutyl-N,N-dimethylpiperazine-1-sulfonamide]"
20,7.85,"Cc1ncc(S(=O)(=O)N2CCN(CC3CCC3)C(c3cc4cnn(-c5ccc(F)cc5)c4cc3C)C2)s1 (single isomer, unassigned) [Example 124, 5-((4-(cyclobutylmethyl)-3-(1-(4-fluorophenyl)-6-methyl-1H-indazol-5-yl)piperazin-1-yl)sulfonyl)-2-methylthiazole]"
21,6.72,"Cc1cc2c(cnn2-c2ccc(F)cc2)cc1C1CN(S(=O)(=O)c2cnn(C)n2)CCN1CC1CNC(=O)C1 (single isomer, unassigned) [Example 118, 4-((2-(1-(4-fluorophenyl)-6-methyl-1H-indazol-5-yl)-4-((2-methyl-2H-1,2,3-triazol-4-yl)sulfonyl)piperazin-1-yl)methyl)pyrrolidin-2-one]"
22,8.19,"Cc1nc(S(=O)(=O)N2CCN(CCC(F)(F)F)C(c3cc4cnn(-c5ccc(F)cc5)c4cc3C)C2)cs1 (single isomer, unassigned) [Example 134, 4-((3-(1-(4-fluorophenyl)-6-methyl-1H-indazol-5-yl)-4-(3,3,3-trifluoropropyl)piperazin-1-yl)sulfonyl)-2-methylthiazole]"
23,6.59,"CC(=O)N1CCN(CC(C)C)C(c2cc3cnn(-c4ccc(F)cc4)c3cc2C)C1 (stereo not drawn) [Example 66, 1-(3-(1-(4-fluorophenyl)-6-methyl-1H-indazol-5-yl)-4-isobutylpiperazin-1-yl)ethan-1-one]"
24,6.57,"Cc1cc2c(cnn2-c2ccc(F)cc2)cc1C1CN(S(=O)(=O)c2cnn(C)n2)CCN1CC1CC(=O)N(C)C1 (single isomer, unassigned) [Example 121, 4-((2-(1-(4-fluorophenyl)-6-methyl-1H-indazol-5-yl)-4-((2-methyl-2H-1,2,3-triazol-4-yl)sulfonyl)piperazin-1-yl)methyl)-1-methylpyrrolidin-2-one]"
